Data from US20090263339A1, “AGENT FOR EXTERNAL APPLICATION TO THE SKIN” (KABUSHIKI KAISHA HAYASHIBARA SEIBUTSU KAGAKU KENKY, priority 2005, published 2009).
In brackets after ≈: the same amount, converted by molar mass. Where two headings read alike, the source gives them in different places.

Key:
[1] = test system: B16 melanoma cells of mouse; experiment: Effect of indigo-plant extract and other skin-whitening ingredient on melanin production (Experiment 2); type: cell-based; parameters: Efficacy with 1.25% of indigo-plant extract: key: −: Not changed; ±: Slightly suppressing blackening; +: Moderately suppressing blackening; ++: Significantly suppressing blackening; +++: Completely suppressing blackening; conditions: for Efficacy with 1.25% of indigo-plant extract: 72 hours; for Efficacy without indigo-plant extract: cultured 72 hours; on Efficacy without indigo-plant extract: key: −: Not changed; ±: Slightly suppressing blackening; +: Moderately suppressing blackening; ++: Significantly suppressing blackening; +++: Completely suppressing blackening
Description: The criterion for evaluation of blackening:
The following experiment was carried out to investigate the skin-whitening effect of indigo-plant extract and other skin-whitening ingredient. After B16 melanoma cells of mouse were cultured for 24 hours, the test samples were added to the medium alone or along with 1.25% of the indigo-plant extract to give the concentrations described in Table 2, the cells were cultured for additional 72 hours. After the number of the living cells was counted, a color of the cells packed in capillary was observed. The effect was evaluated on the same criterion in Experiment 1. When the experiment was conducted using 1.25% of the indigo-plant extract, the effect was evaluated as “+”.

[2] = test system: B16 melanoma cells of mouse; experiment: Effect of polygonaceous plant extracts on melanin production, blackening of cells (Experiment 1); type: cell-based; on Efficacy (suppression of blackening of cells): key: −: Not changed; ±: Slightly suppressing blackening; +: Moderately suppressing blackening; ++: Significantly suppressing blackening; +++: Completely suppressing blackening
Description: The following experiment was carried out to investigate the effect of extract of polygonaceous plants on melanin production. After 2.2×10^5 of B16 melanoma cells of mouse were cultured by conventional method for 24 hours, the medium was added with indigo-plant extract to give a concentration of 1.25% or 2.5%, then they were cultured for additional 72 hours. After the number of the living cells was counted, color of the cells packed in capillary was observed. Using a medium added with any one of the extract of Japanese knotweed, buckwheat and knotgrass prepared by the same method of Example 1 described later to give a concentration of 2.5%, or added with koji acid to give a concentration of 2.5 mM as control, the B16 melanoma cells were cultured by the same manner as using indigo-plant extract. Then the colors of the cells were observed by the same manner as using indigo-plant extract. The degree of blackening of B16 melanoma cells was evaluated by the criterion described below.

[3] = test system: dental bacteria (periodontal disease bacteria and caries bacteria); experiment: MIC to dental bacteria, summary over all strains; type: cell-based
Description: (§1) The following experiment was carried out to investigate the effect of indigo-plant extract on human dental bacteria. Two parts by weight of shredded whole indigo plant was added with three parts by weight of purified water and stirred at a room temperature for 10 minutes to prepare the extract. The supernatant obtained by centrifugation was autoclaved at 120° C. for 20 minutes. After autoclaved, the supernatant obtained by centrifugation was filtrated to give an indigo-plant extract (solid content of 1.41%). The minimum inhibitory concentration (hereinafter, occasionally abbreviated as “MIC”) of the extract to dental bacteria (periodontal disease bacteria and caries bacteria) was determined. Also MIC of tryptanthrin, gallic acid and caffeic acid, which are found to be contained in the indigo-plant extract to dental bacteria. The measurement of MIC was conducted by the method described below.
MIC of the indigo-plant extract, tirptanthrin, gallic acid and caffeic acid was determined according to the standard method of Japanese Society of Chemotherapy (q.v. “Saikin-Shinkin Kensa” (Second edition), issued by Japan Public Health Association, pp. 524-529 (1982)). […]

[4] = test system: A. actinomycetemcomitans; experiment: MIC to dental bacteria, agar plate dilution; type: cell-based, Actinobacillus actinomycetemcomitans; conditions: Aggregatibacter actinomycetemcomitans
Description: as §1
(§2) MIC of the indigo-plant extract, tirptanthrin, gallic acid and caffeic acid was determined according to the standard method of Japanese Society of Chemotherapy (q.v. “Saikin-Shinkin Kensa” (Second edition), issued by Japan Public Health Association, pp. 524-529 (1982)). For periodontal disease bacteria, Prophyromonas gingivalis JCM8525, JCM12257 and ATCC33277, Actinobacillus actinomycetemcomitans (hereinafter, occasionally abbreviated as “A. actinomycetemcomitans”) JCM2434 and JCM8577, Prevotella intermedia (hereinafter, occasionally abbreviated as “P. intermedia”) JCM7365, and Campylobacter rectus (hereinafter, occasionally abbreviated as “C. rectus”) JCM6301 were used. For caries bacteria, Streptococcus mutans OMZ-175, OMZ-176, OMZ-65, OMZ-61, B-13D and Ingbritt, and Streptococcus sorbrinus (hereinafter, occasionally abbreviated as “S. sorbrinus”) 6715 were used. These bacteria were anaerobically cultured in Brain Heart Infusion medium (commercialized by Difco Laboratories Inc., hereinafter abbreviated as “BHI”) at 37° C. for 48 hours for periodontal disease bacteria or for 18 to 24 hours for caries bacteria. The broth of periodontal disease bacteria and caries bacteria was diluted to give the bacteria suspensions containing 10^8 cells/ml and 10^6 cells/ml, respectively. Five μl of any one of these suspension was inoculated on BHI agar plate containing various concentration of the indigo-plant extract, tryptanthrin, gallic acid or caffeic acid and anaerobically cultured at 37° C. for 24 hours.

[5] = test system: A. actinomycetemcomitans; experiment: MIC to dental bacteria, agar plate dilution; type: cell-based, Actinobacillus actinomycetemcomitans; conditions: Aggregatibacter actinomycetemcomitans; remark: listed apart in the source
[6] = test system: S. sobrinus; experiment: MIC to dental bacteria, agar plate dilution; type: cell-based, Streptococcus sorbrinus; conditions: Streptococcus sobrinus, read-out: Minimum Inhibitory Concentration (MIC)
Description: as §1
MIC of the indigo-plant extract, tirptanthrin, gallic acid and caffeic acid was determined according to the standard method of Japanese Society of Chemotherapy (q.v. “Saikin-Shinkin Kensa” (Second edition), issued by Japan Public Health Association, pp. 524-529 (1982)). For periodontal disease bacteria, Prophyromonas gingivalis JCM8525, JCM12257 and ATCC33277, Actinobacillus actinomycetemcomitans (hereinafter, occasionally abbreviated as “A. actinomycetemcomitans”) JCM2434 and JCM8577, Prevotella intermedia (hereinafter, occasionally abbreviated as “P. intermedia”) JCM7365, and Campylobacter rectus (hereinafter, occasionally abbreviated as “C. rectus”) JCM6301 were used. For caries bacteria, Streptococcus mutans OMZ-175, OMZ-176, OMZ-65, OMZ-61, B-13D and Ingbritt, and Streptococcus sorbrinus (hereinafter, occasionally abbreviated as “S. sorbrinus”) 6715 were used. These bacteria were anaerobically cultured in Brain Heart Infusion medium (commercialized by Difco Laboratories Inc., hereinafter abbreviated as “BHI”) at 37° C. for 48 hours for periodontal disease bacteria or for 18 to 24 hours for caries bacteria. […]

[7] = test system: C. rectus; experiment: MIC to dental bacteria, agar plate dilution; type: cell-based; conditions: Campylobacter rectus, read-out: Minimum Inhibitory Concentration (MIC)
Description: as §1, §2

[8] = test system: S. mutans; experiment: MIC to dental bacteria, agar plate dilution; type: cell-based; conditions: Streptococcus mutans
Description: as §1, §2

[9] = test system: P. intermedia; experiment: MIC to dental bacteria, agar plate dilution; type: cell-based; conditions: Prevotella intermedia, read-out: Minimum Inhibitory Concentration (MIC)
Description: as §1, §2

[10] = test system: B16 melanoma cells; experiment: Cytotoxicity to B16 melanoma cells; type: cell-based, mouse; conditions: 0.5 μg/ml
[11] = content 1.0% together with 1.25% indigo-plant extract
[12] = strain JMC2434, read-out: Minimum Inhibitory Concentration (MIC)
[13] = strain JMC8577, read-out: Minimum Inhibitory Concentration (MIC)
[14] = strain JMC8525, read-out: Minimum Inhibitory Concentration (MIC)
[15] = strain JMC12257, read-out: Minimum Inhibitory Concentration (MIC)
[16] = strain JMC33277, read-out: Minimum Inhibitory Concentration (MIC)
[17] = strain B-13D, read-out: Minimum Inhibitory Concentration (MIC)
[18] = strain Ingbritt, read-out: Minimum Inhibitory Concentration (MIC)
[19] = strain OMZ-61, read-out: Minimum Inhibitory Concentration (MIC)
[20] = strain OMZ-65, read-out: Minimum Inhibitory Concentration (MIC)
[21] = strain OMZ-175, read-out: Minimum Inhibitory Concentration (MIC)
[22] = strain OMZ-176, read-out: Minimum Inhibitory Concentration (MIC)
[23] = content 0.5% together with 1.25% indigo-plant extract
[24] = content 3.0% together with 1.25% indigo-plant extract

NC[C@H]1CC[C@H](C(=O)O)CC1 [Tranexamic acid]
Efficacy with 1.25% of indigo-plant extract [1, 11]: ++ | Efficacy without indigo-plant extract ([1]; content 1.0%): ±

O=c1cc(CO)occ1O [koji acid]
Efficacy (suppression of blackening of cells) ([2]; medium containing 2.5 mM, cultured 72 hours): + | Efficacy with 1.25% of indigo-plant extract [1, 11]: +++ | Efficacy without indigo-plant extract ([1]; content 1.0%): +

COc1ccc(C(=O)[O-])c(O)c1.[K+] [Potassium 4-methoxysalicylate]
Efficacy with 1.25% of indigo-plant extract [1, 11]: +++ | Efficacy without indigo-plant extract ([1]; content 1.0%): +

O=C(O)/C=C/c1ccc(O)c(O)c1 [Caffeic acid, caffeic acid]
Antimicrobial activity (in words) [3]: no antimicrobial activity | MIC [4, 12]: 400 µg/mL (≈ 2220 µM) | MIC [4, 13]: 200 µg/mL (≈ 1110 µM) | MIC [5, 14]: 400 µg/mL (≈ 2220 µM) | MIC [5, 15]: 400 µg/mL (≈ 2220 µM) | MIC [5, 16]: 400 µg/mL (≈ 2220 µM) | MIC ([6]; strain 6715): 800 µg/mL (≈ 4440 µM) | MIC ([7]; strain JMC6301): 100 µg/mL (≈ 555 µM) | MIC [8, 17]: 200 µg/mL (≈ 1110 µM) | MIC [8, 18]: 1600 µg/mL (≈ 8880 µM) | MIC [8, 19]: 400 µg/mL (≈ 2220 µM) | MIC [8, 20]: 200 µg/mL (≈ 1110 µM) | MIC [8, 21]: 400 µg/mL (≈ 2220 µM) | MIC [8, 22]: 800 µg/mL (≈ 4440 µM) | MIC ([9]; strain JMC7365): 400 µg/mL (≈ 2220 µM)

O=c1oc2c(O)c(O)cc3c(=O)oc4c(O)c(O)cc1c4c23 [Ellagic acid]
Efficacy with 1.25% of indigo-plant extract [1, 23]: ++ | Efficacy without indigo-plant extract ([1]; content 0.5%): ±

O=C(O)c1cc(O)c(O)c(O)c1 [Gallic acid, gallic acid]
MIC [4, 12]: 800 µg/mL (≈ 4700 µM) | MIC [4, 13]: 800 µg/mL (≈ 4700 µM) | MIC [5, 14]: 400 µg/mL (≈ 2350 µM) | MIC [5, 15]: 400 µg/mL (≈ 2350 µM) | MIC [5, 16]: 400 µg/mL (≈ 2350 µM) | MIC ([6]; strain 6715): 800 µg/mL (≈ 4700 µM) | MIC ([7]; strain JMC6301): 400 µg/mL (≈ 2350 µM) | MIC [8, 17]: 200 µg/mL (≈ 1180 µM) | MIC [8, 18]: 1600 µg/mL (≈ 9410 µM) | MIC [8, 19]: 200 µg/mL (≈ 1180 µM) | MIC [8, 20]: 1600 µg/mL (≈ 9410 µM) | MIC [8, 21]: 400 µg/mL (≈ 2350 µM) | MIC [8, 22]: 400 µg/mL (≈ 2350 µM) | MIC ([9]; strain JMC7365): 400 µg/mL (≈ 2350 µM)

OC[C@H]1O[C@@H](Oc2ccc(O)cc2)[C@H](O)[C@@H](O)[C@@H]1O [Arbutin, hydroquinone-β-D-glucoside]
Efficacy with 1.25% of indigo-plant extract ([1]; content 5.0% together with 1.25% indigo-plant extract): +++ | Efficacy without indigo-plant extract ([1]; content 5.0%): +

O=C1O[C@H]([C@@H](O)CO)C([O-])=C1O.[Na+] [Sodium L-ascorbate]
Efficacy with 1.25% of indigo-plant extract [1, 24]: +++ | Efficacy without indigo-plant extract ([1]; content 3.0%): +

COc1cc(CCC(=O)CC(=O)CCc2ccc(O)c(OC)c2)ccc1O [Tetrahydrocurcumin]
Efficacy with 1.25% of indigo-plant extract [1, 23]: ++ | Efficacy without indigo-plant extract ([1]; content 0.5%): ±

O=C1c2ccccc2-n2c1nc1ccccc1c2=O [tryptanthrin]
MIC ([4]; read-out: Minimum Inhibitory Concentration (MIC), strain JMC2434): 25 µg/mL (≈ 101 µM) | MIC ([4]; read-out: Minimum Inhibitory Concentration (MIC), strain JMC8525): 6.25 µg/mL (≈ 25.2 µM) | MIC ([4]; read-out: Minimum Inhibitory Concentration (MIC), strain JMC8577): 25 µg/mL (≈ 101 µM) | Melanin production ([2]; 0.5 μg/ml or more used instead of the indigo-plant extract): melanin production was suppressed although the effect was lower than the one of indigo-plant extract | MIC ([5]; read-out: Minimum Inhibitory Concentration (MIC), strain JMC12257): 12.5 µg/mL (≈ 50.4 µM) | MIC ([5]; read-out: Minimum Inhibitory Concentration (MIC), strain JMC33277): 12.5 µg/mL (≈ 50.4 µM) | MIC [6]: 25 µg/mL (≈ 101 µM) | Cytotoxicity [10]: no cytotoxity to B16 melanoma cells was observed | MIC [7]: 25 µg/mL (≈ 101 µM) | MIC ([8]; read-out: Minimum Inhibitory Concentration (MIC), strain B-13D): 6.25 µg/mL (≈ 25.2 µM) | MIC ([8]; read-out: Minimum Inhibitory Concentration (MIC), strain Ingbritt): 25 µg/mL (≈ 101 µM) | MIC ([8]; read-out: Minimum Inhibitory Concentration (MIC), strain OMZ-61): 6.25 µg/mL (≈ 25.2 µM) | MIC ([8]; read-out: Minimum Inhibitory Concentration (MIC), strain OMZ-65): 12.5 µg/mL (≈ 50.4 µM) | MIC ([8]; read-out: Minimum Inhibitory Concentration (MIC), strain OMZ-175): 6.25 µg/mL (≈ 25.2 µM) | MIC ([8]; read-out: Minimum Inhibitory Concentration (MIC), strain OMZ-176): 12.5 µg/mL (≈ 50.4 µM) | MIC [9]: 6.25 µg/mL (≈ 25.2 µM)

CCCCC/C=C\C/C=C\CCCCCCCC(=O)O [Linoleic acid]
Efficacy with 1.25% of indigo-plant extract [1, 23]: ++ | Efficacy without indigo-plant extract ([1]; content 0.5%): ±

CCCCc1ccc(O)cc1O [4-n-Butylresorcinol]
Efficacy with 1.25% of indigo-plant extract [1, 24]: +++ | Efficacy without indigo-plant extract ([1]; content 3.0%): +
